The values below come from ChEMBL document CHEMBL4610028, “Variegatic acid from the edible mushroom Tylopilus ballouii inhibits TNF-α production and PKCβ1 activity in leukemia cells” (Bioorg Med Chem Lett, 2020).

The structures appear in SMILES notation.

Assay [1] concerns the target T1, Protein kinase C beta type (Rattus norvegicus, UniProt P68403). Put plainly: Inhibition of PKCbeta in rat RBL2H3 cells assessed as inhibition of ionomycin-stimulated TNFalpha release preincubated for 15 mins followed by ionomycin stimulation and measured after 3 hrs by ELISA. In kind it is cell-based, RBL-2H3.
Assay [2] addresses T1, Protein kinase C beta type. Nature of the assay: Inhibition of PKCbeta in rat RBL2H3 cells assessed as inhibition of ionomycin-stimulated beta-hexosaminidase release preincubated for 15 mins followed by ionomycin stimulation and measured after 3 hrs by 4-nitropheny1-2-acetamide-2-deoxy-beta-glucopyranoside substrate based colorimetric method. In kind it is cell-based, RBL-2H3.

Assay [3] deals with T1, Protein kinase C beta type. Nature of the assay: Inhibition of PKCbeta in rat RBL2H3 cells assessed as inhibition of anti-DNP IgE-stimulated TNFalpha release preincubated for 15 mins followed by mouse anti-DNP IgE stimulation and measured after 3 hrs by ELISA. The assay is classed as cell-based, RBL-2H3.
For assay [4], the target named is Protein kinase C beta type (Homo sapiens, UniProt P05771). Put plainly: Inhibition of recombinant full-length N-temrinal GST-tagged human PKC beta1 expressed in baculovirus infected Sf9 cells using TMB as substrate incubated for 4.5 hrs by colorimetric analysis.

T1 sequence (P68403 whole entry): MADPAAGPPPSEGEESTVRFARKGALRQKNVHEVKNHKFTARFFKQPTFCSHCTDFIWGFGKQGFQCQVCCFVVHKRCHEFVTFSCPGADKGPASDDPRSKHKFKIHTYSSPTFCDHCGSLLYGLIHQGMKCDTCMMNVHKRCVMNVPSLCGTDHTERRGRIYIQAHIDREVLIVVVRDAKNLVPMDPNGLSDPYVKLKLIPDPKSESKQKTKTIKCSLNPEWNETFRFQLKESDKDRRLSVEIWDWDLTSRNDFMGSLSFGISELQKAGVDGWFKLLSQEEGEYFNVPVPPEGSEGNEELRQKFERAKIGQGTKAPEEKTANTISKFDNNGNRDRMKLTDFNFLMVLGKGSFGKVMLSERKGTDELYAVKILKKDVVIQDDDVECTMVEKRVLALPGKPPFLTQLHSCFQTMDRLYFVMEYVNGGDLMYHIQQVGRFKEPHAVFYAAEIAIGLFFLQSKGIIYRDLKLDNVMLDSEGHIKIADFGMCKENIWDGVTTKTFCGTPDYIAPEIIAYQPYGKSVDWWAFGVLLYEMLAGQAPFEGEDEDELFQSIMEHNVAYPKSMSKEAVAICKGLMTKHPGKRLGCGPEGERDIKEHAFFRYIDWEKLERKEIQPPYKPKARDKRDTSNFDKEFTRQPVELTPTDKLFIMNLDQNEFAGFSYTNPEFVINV

For the compound `O=C1O/C(=C(/C(=O)O)c2ccc(O)c(O)c2)C(O)=C1c1ccc(O)c(O)c1`, the IC50 stood at 20.1 µM in assay [1], 22.2 µM in assay [2], 16.8 µM in assay [3] and 36.2 µM in assay [4]. Besides, the inhibition result in assay [4] was “Dose-dependent effect”.
